From patent US11198713B2, “Agents modulating beta-catenin functions and methods thereof” (FOG PHARMACEUTICALS, INC., priority 2017, dated 2021)
≈ marks a conversion by molar mass, not a printed value. Read-outs that look alike come from different tables or passages of the source. Numbered stars: 1 amine (or outer) side, 2 acyl side, 3 side chain; on linkers, the order of the positions; unused ones are H or OH. Bridge positions count the residues as written; N and C are the ends. Square brackets hold non-standard residues; d marks the D form. Peptide text beside a SMILES is read from it. * marks the point of attachment. 3Aminoazetidine3carboxyl = O=C(C1(N[*:1])CN([*:3])C1)[*:2]; dαMeDab(Me) = CN(CC[C@@](C)(N[*:1])C(=O)[*:2])[*:3]; X8 = CN(CC=[*:3])CCC[C@](C)(N[*:1])C(=O)[*:2]; X7 = C[C@](CCCCC=[*:3])(N[*:1])C(=O)[*:2]; X1 = O=C([C@]1(N[*:1])CCN([*:3])C1)[*:2]; X2 = O=C(OCC=CCOC(=O)[*:2])[*:1]; Lauroyl = CCCCCCCCCCCC(=O)*; Octanoyl = CCCCCCCC(=O)*; Aib = CC(C)(N)C(=O)O

How the values were obtained:
[1] = target: T1, full-length beta-catenin (Axin site) (Homo sapiens, UniProt P35222); assay: Competition fluorescence polarization assay (Axin site probe); type: binding; details: competition fluorescence polarization, Table 2; read-out: in vitro FP EC50
T1 construct: 15 nM full-length beta-catenin, 20 nM FITC labeled peptide in buffer
T1 sequence (P35222 1-781): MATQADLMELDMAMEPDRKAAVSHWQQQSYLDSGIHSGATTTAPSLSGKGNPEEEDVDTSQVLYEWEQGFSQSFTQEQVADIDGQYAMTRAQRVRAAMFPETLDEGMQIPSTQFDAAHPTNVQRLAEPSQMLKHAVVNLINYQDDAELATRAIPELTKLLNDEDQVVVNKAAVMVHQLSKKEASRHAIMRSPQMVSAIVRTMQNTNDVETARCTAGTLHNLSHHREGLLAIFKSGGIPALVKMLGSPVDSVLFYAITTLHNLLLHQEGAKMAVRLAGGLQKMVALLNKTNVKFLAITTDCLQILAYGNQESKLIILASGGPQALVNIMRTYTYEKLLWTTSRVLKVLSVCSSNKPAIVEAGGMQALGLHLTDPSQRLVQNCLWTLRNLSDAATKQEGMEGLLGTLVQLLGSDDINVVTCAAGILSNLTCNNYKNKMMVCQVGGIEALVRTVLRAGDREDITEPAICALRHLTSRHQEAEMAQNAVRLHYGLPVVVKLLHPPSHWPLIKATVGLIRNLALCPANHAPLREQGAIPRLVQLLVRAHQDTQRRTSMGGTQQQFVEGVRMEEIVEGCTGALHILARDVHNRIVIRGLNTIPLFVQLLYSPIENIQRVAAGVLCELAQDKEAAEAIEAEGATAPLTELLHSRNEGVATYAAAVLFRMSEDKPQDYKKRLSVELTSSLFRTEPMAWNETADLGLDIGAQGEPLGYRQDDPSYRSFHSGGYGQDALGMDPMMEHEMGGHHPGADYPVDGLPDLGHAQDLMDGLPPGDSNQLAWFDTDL
In short: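 Competition FP: 15 nM full-length β-catenin pre-incubated 5 min with 20 nM FITC-labelled stapled Axin-site peptide, then titrated peptide added (3-fold series from 5 μM) for 15 min in the dark. Buffer 50 mM Tris pH 8.0, 250 mM NaCl, 2% glycerol, 0.5 mM EDTA; duplicate reads.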

[2] = Solubility in DPBS (A280 of supernatant); type: physicochemical
Description: Suitable assays for assessing solubility are widely known in the art and can be utilized in accordance with the present disclosure. In some embodiments, in an exemplary protocol, dried peptide was reconstituted in DPBS (DPBS, 1×, cell culture grade, Sigma D8537) in triplicate, vortexed, sonicated and then centrifuged. Absorbance of the supernatant was measured at A280 (Nanodrop 2000) and the concentration was determined using the extinction coefficient for tryptophan. Exemplary solubility data are presented in, e.g., Table 2.

[3] = DPBS, Table 2, read-out: Solubility

Row | SMILES | EC50 [1] | solubility [2, 3] | solubility ([2]; DPBS, Table 3 Part A, read-out: Solubility in DPBS) | solubility ([2]; DPBS, Table 3 Part B, amino-stapled product, read-out: Solubility in DPBS) | solubility ([2]; Table 2, read-out: Solubility)
1 | CC[C@H](C)[C@@H]1NC(=O)[C@H](Cc2c[nH]cn2)NC(=O)[C@H](C)NC(=O)[C@H](CC(=O)O)NC(=O)[C@H](CC(C)C)NC(=O)[C@H]([C@@H](C)CC)NC(=O)[C@](C)(NC(=O)[C@H](C)NC(C)=O)CCCCCCC=CCOC(=O)N2CC[C@@](C(=O)N[C@@H](CCCNC(=N)N)C(=O)N[C@](C)(C(=O)N[C@@H](Cc3c[nH]c4ccccc34)C(N)=O)C(C)C)(C2)NC1=O [FP0632c, Ac-A-R8-I-L-D-A-H-I-MB-R-aMeV-W-NH2] | 100 to 500 nM | 13 µM (≈ 20.8 µg/mL) | – | – | –
2 | CC[C@H](C)[C@@H]1NC(=O)[C@H](Cc2c[nH]cn2)NC(=O)[C@H](C)NC(=O)[C@H](CC(=O)O)NC(=O)[C@H](CC(C)C)NC(=O)[C@H]([C@@H](C)CC)NC(=O)C2(NC(=O)[C@H](C)NC(C)=O)CN(C2)C(=O)OCC=CCOC(=O)N2CC[C@@](C(=O)N[C@@H](CCCNC(=N)N)C(=O)N[C@H](C(=O)N[C@@H](Cc3c[nH]c4ccccc34)C(N)=O)C(C)C)(C2)NC1=O [FP0617c, Ac-A-MA-I-L-D-A-H-I-MB-R-V-W-NH2] (Ac-A[3Aminoazetidine3carboxyl]ILDAHI[X1]RVW-NH2; linker 2-9 via X2) | < 100 nM | 63 µM (≈ 99.8 µg/mL) | 63 µM (≈ 99.8 µg/mL) | – | –
3 | CC[C@H](C)[C@@H]1NC(=O)[C@H](Cc2c[nH]cn2)NC(=O)[C@H](C)NC(=O)[C@H](CC(=O)O)NC(=O)[C@H](CC(C)C)NC(=O)[C@H]([C@@H](C)CC)NC(=O)[C@](C)(NC(=O)[C@H](C)NC(C)=O)CCCCC=CCN(C)CCC[C@@](C)(C(=O)N[C@@H](CCCNC(=N)N)C(=O)N[C@H](C(=O)N[C@@H](Cc2c[nH]c3ccccc23)C(N)=O)C(C)C)NC1=O [FP0511a, Ac-A-R6-I-L-D-A-H-I-MH-R-V-W-NH2] (Ac-A[X7]ILDAHI[X8]RVW-NH2; staple 2-9) | < 100 nM | 170 µM (≈ 262 µg/mL) | – | 170 µM (≈ 262 µg/mL) | –
4 | CC[C@H](C)[C@H](NC(=O)[C@H](Cc1c[nH]cn1)NC(=O)[C@H](C)NC(=O)[C@H](CC(=O)O)NC(=O)[C@H](CC(C)C)NC(=O)[C@@H](NC(=O)C(C)(C)NC(=O)[C@H](C)NC(C)=O)[C@@H](C)CC)C(=O)NC(C)(C)C(=O)N[C@@H](CCCNC(=N)N)C(=O)N[C@H](C(=O)N[C@@H](Cc1c[nH]c2ccccc12)C(N)=O)C(C)C [FP0628_aib, Ac-A-Aib-I-L-D-A-H-I-Aib-R-V-W-NH2] (Ac-A[Aib]ILDAHI[Aib]RVW-NH2) | 100 to 500 nM | 88 µM (≈ 124 µg/mL) | – | – | –
5 | CCCCCCCC(=O)N[C@@H](C)C(=O)N[C@]1(C)CCN(C)C(=O)OCC=CCOC(=O)N2CC[C@@](C(=O)N[C@@H](CCCNC(=N)N)C(=O)N[C@H](C(=O)N[C@@H](Cc3c[nH]c4ccccc34)C(N)=O)C(C)C)(C2)NC(=O)[C@H]([C@@H](C)CC)NC(=O)[C@H](Cc2c[nH]cn2)NC(=O)[C@H](C)NC(=O)[C@H](CC(=O)O)NC(=O)[C@H](CC(C)C)NC(=O)[C@H]([C@@H](C)CC)NC1=O [FP0597c_c8, Oct-A-MG-I-L-D-A-H-I-MB-R-V-W-NH2] (Octanoyl-A[dαMeDab(Me)]ILDAHI[X1]RVW-NH2; linker 2-9 via X2) | – | – | – | – | 2 µM (≈ 3.4 µg/mL)
6 | CC[C@H](C)[C@@H]1NC(=O)[C@H](Cc2c[nH]cn2)NC(=O)[C@H](C)NC(=O)[C@H](CC(=O)O)NC(=O)[C@H](CC(C)C)NC(=O)[C@H]([C@@H](C)CC)NC(=O)[C@](C)(NC(=O)[C@H](C)NC(=O)CCN)CCCCCCC=CCOC(=O)N2CC[C@@](C(=O)N[C@@H](CCCNC(=N)N)C(=O)N[C@H](C(=O)N[C@@H](Cc3c[nH]c4ccccc34)C(N)=O)C(C)C)(C2)NC1=O [FP0217c_bAfree, bA-A-R8-I-L-D-A-H-I-MB-R-V-W-NH2] | < 100 nM | 155 µM (≈ 250 µg/mL) | – | – | –
7 | CCCCCCCCCCCC(=O)N[C@@H](C)C(=O)N[C@]1(C)CCN(C)C(=O)OCC=CCOC(=O)N2CC[C@@](C(=O)N[C@@H](CCCNC(=N)N)C(=O)N[C@H](C(=O)N[C@@H](Cc3c[nH]c4ccccc34)C(N)=O)C(C)C)(C2)NC(=O)[C@H]([C@@H](C)CC)NC(=O)[C@H](Cc2c[nH]cn2)NC(=O)[C@H](C)NC(=O)[C@H](CC(=O)O)NC(=O)[C@H](CC(C)C)NC(=O)[C@H]([C@@H](C)CC)NC1=O [FP0597c_c12, Dodec-A-MG-I-L-D-A-H-I-MB-R-V-W-NH2] (Lauroyl-A[dαMeDab(Me)]ILDAHI[X1]RVW-NH2; linker 2-9 via X2) | – | 4 µM (≈ 7.02 µg/mL) | – | – | –
